Test results as given in patent publication US20250360091A1, “COMBINATION OF SGLT2 INHIBITOR AND MENTHOL AND USE THEREOF IN TREATMENT OF HEART DISEASE” (EAST CHINA UNIVERSITY OF SCIENCE AND TECHNOLOGY, priority 2023, published 2025).

How the values were obtained:
[1] = test system: H9c2 cells; assay: Oil Red O staining of palmitic acid-induced lipid accumulation (Example 6); assay type: cell-based, Rat; conditions: used alone: EMPA 50 or 100 μM, MEN 200 μM; 24 h after 200 μM palmitic acid 48 h
Experimental: 1. Oil Red O staining. H9c2 cells were seeded in 12-well plates (1×10^5 cells per well) and cultured to 80-90% confluence. The cells were incubated with lipid medium containing 200 μM palmitic acid (Sigma-Aldrich, P0500) for 48 h to induce lipid droplet accumulation. The lipid medium was removed, and the cells were cultured for 24 h with medium containing 50 μM EMPA (E50, EMPA-50), 100 μM EMPA (E100), 200 μM MEN (M200), and 50 μM EMPA+200 μM MEN (E50+M200) but without palmitic acid. After the incubation, the cells were stained with Oil Red. The cells were washed 3 times with PBS and fixed with 4% paraformaldehyde at room temperature for 30 min. They were washed again with PBS 3 times and incubated with Oil Red O working solution at room temperature for 30 min. After rinsing with PBS 3 times, the cells were imaged under a microscope. The red area (positive area of lipid accumulation) was measured using Image J software package. The experiment was divided into 6 groups, black group (blank group, not treated with lipid medium and drugs), control group (control group, treated with lipid medium but not treated with drugs), E50 group (treated with lipid medium and then 50 μM EMPA), E100 (treated with lipid medium and then 100 μM EMPA), M200 (treated with lipid medium and then 200 μM menthol), E50+M200 (treated with lipid medium and then 50 μM empagliflozin+200 μM menthol).

[2] = test system: PGC-1α, PPARα, CPT1b; assay: Western blotting of fatty acid metabolism proteins (Example 6); assay type: cell-based, Rat; conditions: 48 h; menthol 200 μM alone or 50 μM empagliflozin + 200 μM menthol
Experimental: 2. Western blotting. H9c2 cells were seeded in a 12-well plate. After 48 hours of drug treatment, the cells were harvested and the total protein in the cells was extracted with RIPA lysis buffer. After BCA quantification, 4× loading buffer was added and boiled in a 95° C. metal bath for 10 minutes to denature the protein. 5-10 μg of the denatured protein sample was added to SDS-PAGE. After electrophoresis, separation, transfer, and blocking, PGC-1α, PPARα, CPT1b, and GAPDH primary antibody were added and incubated overnight at 4° C. The next day, the primary antibody was recovered, and the corresponding secondary antibody was added and incubated at room temperature for 1 hour. After washing three times, ECL chemiluminescent solution was added to the strips, and immunoblotting analysis was performed using a Tanon gel imager. ImageJ software was used to perform grayscale analysis of the immunoblot bands, GAPDH was used as an internal reference for correction, and the relative expression content of the protein was calculated. The experiment was divided into DMSO group (DMSO treatment group with content not exceeding 0.5%), E50 (50 μM EMPA treatment group), M200 (200 μM menthol treatment group), and E50+M200 (50 μM empagliflozin+200 μM menthol treatment group).

[3] = test system: Rat cardiomyocytes (H9c2); assay: GD-induced myocardial cell damage model, CCK-8, SGLT2 inhibitors with L-menthol (Example 9); assay type: cell-based; conditions: single drugs: SGLT2 inhibitor 50 μM or menthol 200 μM; GD 36-48 h; untreated group 54.7%
Experimental: In this example, the protective effect of the drug composition on myocardial cells was evaluated by using a GD-induced myocardial cell damage model. […] Rat cardiomyocytes (H9c2) were purchased from the Chinese Academy of Sciences Stem Cell Bank. The cardiomyocytes were cultured in high-glucose DMEM medium (Gibco, 11995-065) containing 10% fetal bovine serum and 1% penicillin/streptomycin, and incubated in a 37° C., 5% CO2 incubator. […] When the cells reached confluence, the DMEM medium was removed, and the cells were washed once with PBS. […] The synergistic coefficient was calculated using the Zero interaction dose model, with the formula: CI=(EAB−EA*EB)/(EA+EB−EA*EB), wherein CI is the synergistic effect index, EAB is the efficacy index of the combination of drugs, and EA and EB are the efficacy indices of the individual drugs, respectively.

[4] = test system: TAC-induced heart failure model; assay: Transverse aortic constriction (TAC)-induced heart failure model (Example 4); assay type: in vivo, C57/6J male mice
Experimental: The transverse aortic constriction (TAC) model is the most commonly used disease model of chronic ventricular hypertrophy, which is used to simulate hypertrophic cardiomyopathy, heart failure, and hypertensive heart disease caused by hypertension or increased intraventricular pressure.
Nine-week-old C57/6J male mice were divided into five groups (sham group, TAC group, 30 mg/kg cmpagliflozin group (E30), 10 mg/kg empagliflozin+15 mg/kg menthol group (E10+M15), and 30 mg/kg empagliflozin+45 mg/kg menthol group (E30+M45)).
Experimental process of aortic arch constriction surgery: hair was removed from the surgical area from the neck to the anterior chest of the experimental mouse, and the surgical area was disinfected with iodine. The neck and chest were opened in the midline, the muscles were bluntly separated, the incision was retracted with retractors, the thymus was dissected, and the aortic arch was exposed. The innominate artery, left common carotid artery, and left subclavian artery were found along the aortic arch. The thread was passed between the right innominate artery and the left common carotid artery, and the constriction needle was paced parallel to the aortic arch and then the thread was tied a knot. After tightening the thread, the constriction needle was slowly withdrawn, that is, quantitative constriction was formed in the aortic arch. The chest cavity was closed, the skin on the neck and chest was sutured and disinfected with iodine. Two weeks after the operation, after confirming the hypertrophy of the heart through cardiac function test, drug administration started, and continued for 4 weeks. The drug administration group was gavaged once a day in the morning, and the sham group and TAC group were gavaged with the same amount of drinking water every morning.
The survival of mice was recorded during the experiment. After 4 weeks of continuous administration, the exercise tolerance of experimental mice was evaluated by rotarod test, suspension test and grip strength test. The rotarod test evaluated the maximum tolerance time of mice at a speed of 35 rpm, the suspension test evaluated the maximum tolerance time of mice forearm suspension, and the grip strength test evaluated the maximum grip strength of mice forepaws. […] After the experiment, the mice were euthanized, the hearts were weighed, the heart-body weight ratio was calculated, and then the hearts were fixed, paraffin-embedded, sliced, and Masson-stained. ImageJ was used to quantify the fibrosis area and calculate the degree of cardiac fibrosis. Graph Pad software was used for data processing and significant differences were calculated (OneWayANOVA was used between multiple groups, and Student's t test was used between two groups).

Compound | lipid accumulation in cardiomyocytes (Oil Red O staining area) [1] | expression of PCG-1α/PPARα [2] | expression of fatty acid transporter CPT1b [2] | cell survival rate [3] [%] | myocardial hypertrophy (heart weight to body weight ratio) ([4]; EMPA 30 mg/kg, 4 weeks) | mouse deaths during the experiment (survival) ([4]; EMPA 30 mg/kg, gavage once daily for 4 weeks) | cardiac function (ejection fraction, fractional shortening, LV diameters) ([4]; empagliflozin 30 mg/kg, 4 weeks) | exercise tolerance (grip strength, rotarod, forearm suspension) ([4]; empagliflozin alone 30 mg/kg, 4 weeks)
CC(C)[C@@H]1CC[C@@H](C)C[C@H]1O [menthol, L-menthol] | significantly reduce lipid accumulation | significantly increase the expression | upregulate the expression | 56.7 | – | – | – | –
OC[C@H]1O[C@@H](c2ccc(Cl)c(Cc3ccc(O[C@H]4CCOC4)cc3)c2)[C@H](O)[C@@H](O)[C@@H]1O [empagliflozin] | significantly reduce lipid accumulation | – | – | 64.5 | significantly improves myocardial hypertrophy | one mouse died | significantly improves TAC-induced cardiac dysfunction | cannot improve the exercise tolerance
